Reference: patent publication US12297203B2, “Pyrrolopyrimidine ITK inhibitors” (ACLARIS THERAPEUTICS, INC., priority 2018, dated 2025)
Like-named read-outs stand apart in the source and are kept apart here.

Key:
[1] = molecular target: ITK (Homo sapiens (Human), UniProt Q08881); assay: ITK inhibitor binding potency (LanthaScreen competitive binding assay); conditions: read-out: ITK Inh. IC50
Source text: The ability of candidate compounds to interact with ITK is quantitated by a competitive binding assay using the LanthaScreen technology developed by Life Technologies. This assay is based on the binding of a proprietary, Alexa Fluor® 647-labeled, ATP-competitive kinase inhibitor (kinase tracer-236) to the ITK expression construct in the presence of a Europium-conjugated antibody, resulting in a FRET (fluorescence resonance energy transfer) signal. Displacement of the kinase tracer by compound results in a lower emission ratio upon excitation of the Europium chelate. Candidate compounds are designed as potential irreversible inhibitors of ITK, capable of ligating to an active site cysteine residue resulting in time dependent covalent binding. The time dependent nature of irreversible inhibition is investigated by performing the binding assay with and without a pre-incubation of compound and ITK. […] The inhibitory potency of candidate compounds is measured in 20 mM HEPES pH 7.5, 10 mM MgCl2, 0.01% BSA, 0.0005% Tween-20, and 2% DMSO in the presence of 10 nM ITK, 2 nM Eu-anti-GST antibody, and 50 nM kinase tracer-236 using a 384-well plate format. Background signal is defined in the absence of ITK and uninhibited signal is defined in the presence of vehicle (2% DMSO) alone. Compounds were evaluated in an 11 point dose-response ranging from 20 uM to 0.34 nM. The binding assays are performed under two preincubation conditions to evaluate time dependence of inhibition. For the pre-incubation assay, ITK and Eu-anti-GST antibody are pre-incubated with compound or vehicle for two hours prior to the addition of kinase tracer. The non-preincubated assay is run under conditions where ITK and Eu-anti-GST antibody are added to a mixture of compound and kinase tracer. IC50 values of compounds are determined using a 4 parameter logistical fit of emission ratio as a function of the concentration of compound.

[2] = molecular target: JAK3 (Homo sapiens (Human), UniProt P52333); assay: JAK3 enzyme activity assay (Caliper mobility shift); assay type: biochemical; conditions: ATP at Km level; read-out: JAK3 Inh. IC50
Sequence of JAK3 (P52333 781-1124): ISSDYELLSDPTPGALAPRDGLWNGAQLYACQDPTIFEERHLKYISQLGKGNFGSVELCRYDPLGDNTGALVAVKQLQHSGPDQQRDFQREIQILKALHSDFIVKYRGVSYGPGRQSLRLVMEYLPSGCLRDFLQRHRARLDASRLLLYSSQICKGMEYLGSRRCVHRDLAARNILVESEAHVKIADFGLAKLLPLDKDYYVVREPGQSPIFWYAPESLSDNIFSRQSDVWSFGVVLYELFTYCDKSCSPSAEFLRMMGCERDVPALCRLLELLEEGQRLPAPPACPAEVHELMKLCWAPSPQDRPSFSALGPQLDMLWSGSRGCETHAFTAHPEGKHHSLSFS
Source text: The ability of candidate compounds to interact with JAK3 is quantitated by a mobility shift assay using an LC3000 instrument developed by Caliper Life Sciences. This assay is based on mobility shift electrophoresis, in which fluorescently labelled product and fluorescently labelled substrate peaks are separated and detected independently. JAK3 product/substrate separation is obtained using the following instrument settings: Pressure=−1.4 psi, Downstream voltage=−2550V and Upstream voltage=−800V. The inhibitory potency of candidate compounds of JAK3 is measured in 20 mM HEPES pH 7.5, 10 mM MgCl2, 0.01% BSA, 0.0005% Tween-20, and 2% DMSO in the presence of 2.5 nM JAK3 (Life Technologies Catalog #PV3855), […] (Anaspec Catalog #AS-64106) and […] (Km level) using a 384-well plate format. Background signal is defined in the absence of enzyme and uninhibited signal is defined in the presence of vehicle (2% DMSO) alone. Compounds were evaluated in an 11 point dose-response ranging from […] to 0.34 nM. IC50 values of compounds are determined using a 4 parameter logistical fit of emission ratio as a function of the concentration of compound.

[3] = test system: ITK phosphorylation of its substrate, PLCγ1, at Y783; assay: ITK target modulation assay (PLCγ1 Y783 phosphorylation, anti-CD3 stimulated Jurkat T cells); assay type: cell-based; conditions: anti-CD3 Dynabeads stimulation, read-out: PLC-γ Inh. IC50
Procedure: Target modulation was based upon the ability of a compound to inhibit ITK phosphorylation of its substrate, PLCγ1, at Y783. Human Jurkat T cells (ATCC TIB-152) were plated in V-bottom 96 well plates at 400,000 cells/well in 80 μL medium (RPMI1640 with 10% heat inactivated serum and 55 μM 2-mercaptoethanol and supplemented with glutamine/penicillin/streptomycin). Compounds were added as 10 μL of 10× working stock solutions in medium with 1% DMSO (or medium with 1% DMSO for controls) and placed in a 37° C. incubator with gentle shaking for 1 hour. Stimulation was carried out using anti-CD3 Dynabeads (Invitrogen catalog #1151D) to activate the T cell receptor and mimic antigen presenting cells. Beads were washed and resuspended in medium at 1.84×10^8 beads/ml. Beads were added rapidly to all compound containing and stimulation only wells at 10 μL/well (bead:cell=2:1) with gentle mixing of the bead source between each addition. Wells designated ‘unstimulated’ received 10 μL of media only. The plate was immediately sealed with a plate seal and cells pelleted at 400× g for 4 minutes. Media was removed using a multichannel aspirator, 25 μL of cold hypotonic lysis buffer (VWR M334-100 ml) plus 1×HALT Protease Inhibitor Cocktail (ThermoFisher #78437), 1× Phosphatase Inhibitor Cocktail 2 (Sigma Aldrich #P5726), 1× Phosphatase Inhibitor Cocktail 3 (Sigma Aldrich #P0044) and 2 mM PMSF was added per well. Cells were incubated on ice for 30 minutes to swell the cells then lysed by pipetting 20 times using a multichannel pipet. The plates were then resealed and centrifuged for 5 minutes at 400× g to pellet the cellular debris. Two μL of the soluble component of each sample was spotted onto nitrocellulose and allowed to dry for 30 minutes. Nitrocellulose was wet in 1× Tris Buffer Saline (20 mM Tris pH7.5, 150 mM NaCl) then blocked in LiCOR Odyssey Blocking Buffer (TBS) (LiCOR #927-50000) for 1 hour at room temperature with rocking. Following blocking, nitrocellulose was incubated in LiCOR Odyssey Blocking Buffer (TBS) plus 0.2% Tween20 plus anti-phospho-PLCγ1 (Y783) antibody (CST #2821S) at 1:1000 and anti-PLCγ1 (Abcam #41433) at 1:5000 with gentle rocking overnight at 4° C. Nitrocellulose was then washed four times for 5 minutes each with TBS plus 0.1% Tween20 (TBST) then incubated in LiCOR Odyssey Blocking Buffer (TBS) plus 0.2% Tween20 plus secondary antibodies IRDye 800CW (LiCOR 926-32211) and IRDye 680RD (LiCOR 926-68070) both at 1:15,000 with gentle rocking at room temperature in the dark for 1 hour. Nitrocellulose was then washed four times for 5 minutes each with TBST at room temperature in the dark. A final rinse with TBS was done prior to imaging and quantifying using the LiCOR Odyssey Imager and software respectively.

[4] = test system: JAK1/3 phosphorylation of its substrate, STAT5, at Y694; assay: JAK1/3 target modulation assay (IL-2 stimulated STAT5 Y694 phosphorylation in PBMC); assay type: cell-based; conditions: Primary human peripheral blood mononuclear cells, IL-2 25 ng/mL, read-out: IL2-STAT5 Inh. IC50
Procedure: Target modulation was based upon the ability of a compound to inhibit JAK1/3 phosphorylation of its substrate, STAT5, at Y694. Primary human peripheral blood mononuclear cells were plated in V-bottom 96 well plates at 200,000 cells/well in 120 μL medium (RPMI-1640 with 10% fetal bovine serum, 10 mM HEPES buffer, 12.2 mM 2-mercaptoethanol, and supplemented with glutamine/penicillin/streptomycin). Compounds were added as 15 μL of 10× working stock solutions in medium with 1% DMSO (or medium with 1% DMSO for controls) and placed in a 37° C. incubator with gentle shaking for 1 hour. Stimulation was carried out using recombinant human IL-2 (R&D Systems #202-IL-050) to activate JAK1/3. IL-2 stock solution was diluted in media to 250 ng/mL and was added rapidly to all compound containing and stimulation only wells at 15 μL/well (final concentration=25 ng/mL). Wells designated ‘unstimulated’ received 15 μL of media only. The plate was placed back in a 37° C. incubator with gentle shaking for 5 minutes. After stimulation, the plates were immediately sealed with a plate seal, and cells pelleted at 400× g for 5 minutes. Media was removed using a multichannel aspirator, and 75 μL of cold Tris lysis buffer (MSD #R60TX-3) plus 1× Protease Inhibitor Solution (MSD #R70AA-1), 1× Phosphatase Inhibitor I (MSD #R70AA-1), and 1× Phosphatase Inhibitor II (MSD #R70AA-1) was added per well. Cells were incubated at 4° C. with gentle shaking for at least 30 minutes to allow for complete lysis. The plates were removed from 4° C., and 25 μL of lysate from each well was added to the corresponding well on the MSD plate. Samples were analyzed by either an MSD multiplex kit for Phospho-STAT5a,b/Total-STAT5a,b (MSD #K15163D) or an MSD single-plex kit for Phospho-STAT5a,b (MSD #K150IGD). The protocols for the respective kits were followed, and the plates were read on the MSD SECTOR S 600.

Sequence of ITK (Q08881 whole entry): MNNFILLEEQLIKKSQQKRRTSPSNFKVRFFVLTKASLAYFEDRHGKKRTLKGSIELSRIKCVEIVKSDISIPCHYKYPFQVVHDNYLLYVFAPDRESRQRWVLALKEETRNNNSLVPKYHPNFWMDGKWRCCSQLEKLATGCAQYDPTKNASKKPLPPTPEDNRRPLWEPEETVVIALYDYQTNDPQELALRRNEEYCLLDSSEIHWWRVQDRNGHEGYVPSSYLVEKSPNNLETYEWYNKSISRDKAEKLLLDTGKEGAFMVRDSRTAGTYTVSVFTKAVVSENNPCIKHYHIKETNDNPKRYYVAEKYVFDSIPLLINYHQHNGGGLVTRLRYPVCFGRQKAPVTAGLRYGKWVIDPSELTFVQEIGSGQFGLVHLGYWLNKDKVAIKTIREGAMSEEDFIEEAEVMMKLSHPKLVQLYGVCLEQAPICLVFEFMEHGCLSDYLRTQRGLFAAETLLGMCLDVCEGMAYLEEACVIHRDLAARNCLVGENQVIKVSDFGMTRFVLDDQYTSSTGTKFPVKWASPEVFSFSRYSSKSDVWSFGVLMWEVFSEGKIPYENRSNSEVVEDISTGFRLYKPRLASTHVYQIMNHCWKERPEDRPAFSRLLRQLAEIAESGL

| SMILES | IC50 [1] [nM] | IC50 [2] [nM] | IC50 ([3]; Homo sapiens, Jurkat) [nM] | IC50 ([4]; Homo sapiens, PBMC) [nM] | IC50 ([3]; Human Jurkat T cells) [nM] | IC50 [4] [nM] |
| --- | --- | --- | --- | --- | --- | --- |
| C=CC(=O)N1C[C@H](Nc2ncnc3[nH]cc(CC4CC4)c23)CC[C@@H]1CC (single isomer, unassigned) [Example 40] | > 100 | > 100 | > 1000 | > 1000 |  |  |
| C=CC(=O)N1C[C@@H](Nc2ncnc3[nH]cc(CC4CC4)c23)CC[C@H]1C(C)C (single isomer, unassigned) [Example 42] | ≤ 10 | ≤ 10 | 100 to 1000 | 100 to 1000 |  |  |
| C=CC(=O)N1C[C@H](Nc2ncnc3[nH]cc(CC4CC4)c23)CC[C@@H]1C(C)C (single isomer, unassigned) [Example 43] | > 100 | > 100 | > 1000 | > 1000 |  |  |
| C=CC(=O)N1C[C@H](Nc2ncnc3[nH]cc([C@@H]4C[C@H]4COC)c23)CC[C@@H]1C (single isomer, unassigned) [Example 45] | ≤ 10 | ≤ 10 | ≤ 100 | ≤ 100 |  |  |
| C=CC(=O)N1C[C@H](Nc2ncnc3[nH]cc([C@H]4C[C@@H]4COC)c23)CC[C@@H]1C (single isomer, unassigned) [Example 46] | ≤ 10 | ≤ 10 | 100 to 1000 | 100 to 1000 |  |  |
| C=CC(=O)N1C[C@H](Nc2ncnc3[nH]cc([C@@H]4CC4(F)F)c23)CC[C@@H]1C (single isomer, unassigned) [Example 48] | ≤ 10 | ≤ 10 | ≤ 100 | ≤ 100 |  |  |
| C=CC(=O)N1C[C@H](Nc2ncnc3[nH]cc([C@H]4CC4(F)F)c23)CC[C@@H]1C (single isomer, unassigned) [Example 49] | ≤ 10 | ≤ 10 | 100 to 1000 | 100 to 1000 |  |  |
| C=CC(=O)N1C[C@H](Nc2ncnc3[nH]cc([C@H]4[C@H](C)C4(F)F)c23)CC[C@@H]1C (single isomer, unassigned) [Example 51] | ≤ 10 | ≤ 10 | ≤ 100 | ≤ 100 |  |  |
| C=CC(=O)N1C[C@H](Nc2ncnc3[nH]cc([C@@H]4[C@@H](C)C4(F)F)c23)CC[C@@H]1C (single isomer, unassigned) [Example 52] | ≤ 10 | ≤ 10 | 100 to 1000 | 100 to 1000 |  |  |
| C=CC(=O)N1C[C@H](Nc2ncnc3[nH]cc([C@@H]4C(C)(C)C4(F)F)c23)CC[C@@H]1C (single isomer, unassigned) [Example 54] | ≤ 10 | ≤ 10 | 100 to 1000 | 100 to 1000 |  |  |
| C=CC(=O)N1C[C@H](Nc2ncnc3[nH]cc([C@H]4[C@@H](C)C4(F)F)c23)CC[C@@H]1C (single isomer, unassigned) [Example 55] | ≤ 10 | ≤ 10 | 100 to 1000 | ≤ 100 |  |  |
| C=CC(=O)N1C[C@H](Nc2ncnc3[nH]cc([C@H]4[C@H](C)C4(F)F)c23)CC[C@@H]1C (single isomer, unassigned) [Example 56] | ≤ 10 | ≤ 10 |  |  | 100 to 1000 | 100 to 1000 |
| C/C=C/C(=O)N1C[C@H](Nc2ncnc3[nH]cc([C@H]4CC4(F)F)c23)CC[C@@H]1C (single isomer, unassigned) [Example 57] | > 100 | > 100 | > 1000 | > 1000 |  |  |
| C/C=C/C(=O)N1C[C@H](Nc2ncnc3[nH]cc([C@@H]4CC4(F)F)c23)CC[C@@H]1C (single isomer, unassigned) [Example 58] | > 100 | > 100 | 100 to 1000 | > 1000 |  |  |
| C[C@H]1CC[C@@H](Nc2ncnc3[nH]cc([C@H]4CC4(F)F)c23)CN1C(=O)/C=C/CN(C)C (single isomer, unassigned) [Example 60] | ≤ 10 | ≤ 10 | ≤ 100 | 100 to 1000 |  |  |
| C[C@H]1CC[C@@H](Nc2ncnc3[nH]cc([C@@H]4CC4(F)F)c23)CN1C(=O)/C=C/CN(C)C (single isomer, unassigned) [Example 61] | ≤ 10 | 10 to 100 | 100 to 1000 | > 1000 |  |  |
| C=C(C)C(=O)N1C[C@H](Nc2ncnc3[nH]cc([C@H]4CC4(F)F)c23)CC[C@@H]1C (single isomer, unassigned) [Example 62] | > 100 | > 100 | 100 to 1000 | > 1000 |  |  |
